Assay results reported in ChEMBL document CHEMBL4616677, “Preclinical Lead Optimization of a 1,2,4-Triazole Based Tankyrase Inhibitor” (J Med Chem, 2020).
The source made the active and inactive calls. No cut-off for these calls is given here.

Key:
[1] = target: T1, Protein mono-ADP-ribosyltransferase PARP3 (Homo sapiens, UniProt Q9Y6F1); test: Inhibition of ARTD3 (unknown origin) measured after 4 hrs in presence of NAD+ by fluorescence assay
T1 sequence (Q9Y6F1 whole entry): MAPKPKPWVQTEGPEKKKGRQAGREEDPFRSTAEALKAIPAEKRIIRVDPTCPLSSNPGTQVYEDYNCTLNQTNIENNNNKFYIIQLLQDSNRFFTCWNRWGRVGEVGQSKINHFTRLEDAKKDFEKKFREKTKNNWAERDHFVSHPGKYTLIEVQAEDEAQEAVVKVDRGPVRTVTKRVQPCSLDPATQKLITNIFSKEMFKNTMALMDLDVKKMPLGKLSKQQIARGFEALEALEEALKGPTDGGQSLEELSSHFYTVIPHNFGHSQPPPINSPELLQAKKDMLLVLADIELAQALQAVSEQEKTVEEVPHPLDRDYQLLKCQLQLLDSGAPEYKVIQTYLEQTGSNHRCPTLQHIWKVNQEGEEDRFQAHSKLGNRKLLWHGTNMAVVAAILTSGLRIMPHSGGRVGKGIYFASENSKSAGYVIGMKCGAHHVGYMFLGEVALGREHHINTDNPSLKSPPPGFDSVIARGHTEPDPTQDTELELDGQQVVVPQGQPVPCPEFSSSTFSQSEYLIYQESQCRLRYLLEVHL

RKO = test: Antiproliferative activity against APC wild-type human RKO cells at 10 uM measured after 5 days by MTS assay; format: functional, cell-based
[2] = Apparent permeability across apical to basolateral side in human Caco2 cells at 10 uM measured after 2 hrs by lucifer yellow based LC-MS/MS analysis; format: ADME, cell-based; conditions: Caco-2
[3] = Genotoxicity in Salmonella typhimurium TA100 in presence or absence of rat S9 fraction by mini-Ames test; format: toxicity; conditions: salmonella enterica subsp. enterica serovar typhimurium
[4] = Genotoxicity in Salmonella typhimurium TA98 in presence or absence of rat S9 fraction by mini-Ames test; format: toxicity; conditions: salmonella enterica subsp. enterica serovar typhimurium
[5] = Clearance in ICR mouse at 5 mg/kg, po by LC-MS/MS analysis; format: ADME, organism-based; conditions: in vivo
[6] = target: Protein mono-ADP-ribosyltransferase PARP4 (Homo sapiens, UniProt Q9UKK3)
Chain of Protein mono-ADP-ribosyltransferase PARP4 (Q9UKK3 whole entry): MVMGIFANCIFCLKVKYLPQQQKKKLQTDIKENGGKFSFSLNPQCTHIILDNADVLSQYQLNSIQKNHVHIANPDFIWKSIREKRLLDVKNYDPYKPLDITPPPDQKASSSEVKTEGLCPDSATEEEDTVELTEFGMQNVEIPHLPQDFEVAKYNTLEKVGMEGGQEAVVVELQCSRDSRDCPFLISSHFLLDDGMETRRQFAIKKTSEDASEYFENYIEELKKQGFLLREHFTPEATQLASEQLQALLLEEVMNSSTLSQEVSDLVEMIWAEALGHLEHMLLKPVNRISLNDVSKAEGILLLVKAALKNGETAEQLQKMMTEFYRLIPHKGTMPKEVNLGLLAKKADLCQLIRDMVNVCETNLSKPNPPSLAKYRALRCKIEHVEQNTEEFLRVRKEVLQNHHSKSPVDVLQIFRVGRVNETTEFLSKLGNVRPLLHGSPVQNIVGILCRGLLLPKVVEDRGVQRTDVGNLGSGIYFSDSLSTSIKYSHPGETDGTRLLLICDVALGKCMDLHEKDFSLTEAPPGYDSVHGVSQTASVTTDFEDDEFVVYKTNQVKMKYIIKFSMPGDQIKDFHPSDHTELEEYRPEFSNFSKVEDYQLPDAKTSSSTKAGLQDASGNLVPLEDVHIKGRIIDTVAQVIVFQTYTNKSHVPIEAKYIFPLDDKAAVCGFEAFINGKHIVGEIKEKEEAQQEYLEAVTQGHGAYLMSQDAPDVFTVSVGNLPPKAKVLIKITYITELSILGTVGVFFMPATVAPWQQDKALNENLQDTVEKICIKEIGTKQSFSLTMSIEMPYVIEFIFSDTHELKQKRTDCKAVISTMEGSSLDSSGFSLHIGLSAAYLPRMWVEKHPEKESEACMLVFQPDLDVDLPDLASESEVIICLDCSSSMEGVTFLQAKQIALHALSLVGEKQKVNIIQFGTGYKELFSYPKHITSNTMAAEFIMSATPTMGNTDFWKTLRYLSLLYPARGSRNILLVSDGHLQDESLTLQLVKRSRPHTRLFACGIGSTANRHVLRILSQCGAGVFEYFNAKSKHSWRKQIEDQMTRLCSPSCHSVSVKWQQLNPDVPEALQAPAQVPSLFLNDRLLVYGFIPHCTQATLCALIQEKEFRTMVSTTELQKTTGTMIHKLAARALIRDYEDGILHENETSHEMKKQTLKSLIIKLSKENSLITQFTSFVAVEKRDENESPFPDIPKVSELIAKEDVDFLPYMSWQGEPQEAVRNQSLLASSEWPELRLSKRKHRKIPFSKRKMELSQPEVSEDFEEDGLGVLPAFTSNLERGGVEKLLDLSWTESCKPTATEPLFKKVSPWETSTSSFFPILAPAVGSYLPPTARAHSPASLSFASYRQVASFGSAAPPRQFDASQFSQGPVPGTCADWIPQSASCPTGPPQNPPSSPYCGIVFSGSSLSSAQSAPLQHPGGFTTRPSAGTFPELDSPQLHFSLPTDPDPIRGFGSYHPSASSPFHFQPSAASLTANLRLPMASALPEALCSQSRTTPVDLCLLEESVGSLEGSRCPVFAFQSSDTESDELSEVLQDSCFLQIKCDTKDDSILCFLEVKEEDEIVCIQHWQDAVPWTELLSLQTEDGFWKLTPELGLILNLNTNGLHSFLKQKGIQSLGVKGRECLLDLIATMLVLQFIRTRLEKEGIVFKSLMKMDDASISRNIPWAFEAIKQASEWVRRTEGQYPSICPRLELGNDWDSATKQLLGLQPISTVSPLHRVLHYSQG

[7] = target: Poly [ADP-ribose] polymerase 2 (Homo sapiens, UniProt Q9UGN5); test: Inhibition of ARTD2 (unknown origin) measured after 30 mins in presence of NAD+ by fluorescence assay
Chain of Poly [ADP-ribose] polymerase 2 (Q9UGN5 whole entry): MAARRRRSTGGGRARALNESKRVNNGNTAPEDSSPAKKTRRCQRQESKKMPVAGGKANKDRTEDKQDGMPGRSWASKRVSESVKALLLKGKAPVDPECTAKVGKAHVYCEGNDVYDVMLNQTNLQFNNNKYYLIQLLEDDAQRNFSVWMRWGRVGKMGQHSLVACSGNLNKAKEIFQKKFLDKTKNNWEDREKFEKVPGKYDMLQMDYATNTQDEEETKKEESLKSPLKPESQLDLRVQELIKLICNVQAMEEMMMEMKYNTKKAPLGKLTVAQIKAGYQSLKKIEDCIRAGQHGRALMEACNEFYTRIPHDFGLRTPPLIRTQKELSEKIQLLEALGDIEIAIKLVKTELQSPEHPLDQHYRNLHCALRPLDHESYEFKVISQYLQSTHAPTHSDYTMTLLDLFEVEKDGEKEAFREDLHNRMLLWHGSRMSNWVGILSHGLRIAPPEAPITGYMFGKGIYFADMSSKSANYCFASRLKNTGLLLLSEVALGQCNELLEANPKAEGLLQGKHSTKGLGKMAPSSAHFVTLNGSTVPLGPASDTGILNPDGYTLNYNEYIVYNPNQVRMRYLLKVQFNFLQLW

[8] = target: Poly [ADP-ribose] polymerase 1 (Homo sapiens, UniProt P09874); test: Inhibition of ARTD1 (unknown origin) measured after 30 mins in presence of NAD+ by fluorescence assay
Chain of Poly [ADP-ribose] polymerase 1 (P09874 whole entry): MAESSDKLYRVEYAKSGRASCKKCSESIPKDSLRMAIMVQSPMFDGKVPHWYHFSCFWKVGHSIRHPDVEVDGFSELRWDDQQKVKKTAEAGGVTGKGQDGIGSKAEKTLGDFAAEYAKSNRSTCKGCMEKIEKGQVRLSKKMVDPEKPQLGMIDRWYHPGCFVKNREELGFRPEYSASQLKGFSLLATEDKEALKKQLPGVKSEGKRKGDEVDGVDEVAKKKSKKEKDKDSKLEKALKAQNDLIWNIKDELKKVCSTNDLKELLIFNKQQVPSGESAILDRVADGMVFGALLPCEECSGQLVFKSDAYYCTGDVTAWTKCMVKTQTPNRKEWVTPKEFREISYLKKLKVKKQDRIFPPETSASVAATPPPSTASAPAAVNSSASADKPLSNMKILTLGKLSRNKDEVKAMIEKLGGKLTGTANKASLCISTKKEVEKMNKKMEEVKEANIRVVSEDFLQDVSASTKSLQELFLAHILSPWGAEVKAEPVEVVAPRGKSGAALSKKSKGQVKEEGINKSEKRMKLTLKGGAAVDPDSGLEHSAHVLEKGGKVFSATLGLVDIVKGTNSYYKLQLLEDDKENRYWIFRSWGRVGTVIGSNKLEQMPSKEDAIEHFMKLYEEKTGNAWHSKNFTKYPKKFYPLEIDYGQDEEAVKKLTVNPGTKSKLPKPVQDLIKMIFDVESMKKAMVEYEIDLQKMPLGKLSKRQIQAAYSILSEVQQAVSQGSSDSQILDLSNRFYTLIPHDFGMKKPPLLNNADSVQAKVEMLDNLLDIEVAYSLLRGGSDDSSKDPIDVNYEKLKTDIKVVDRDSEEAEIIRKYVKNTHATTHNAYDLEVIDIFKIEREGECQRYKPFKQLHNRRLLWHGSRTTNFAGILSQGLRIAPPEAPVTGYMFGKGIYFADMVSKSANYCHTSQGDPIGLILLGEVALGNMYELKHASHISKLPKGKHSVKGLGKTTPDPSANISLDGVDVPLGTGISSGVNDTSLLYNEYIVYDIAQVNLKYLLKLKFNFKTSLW

## CCOc1ccc(-c2nnc([C@H]3C[C@H](NC(=O)c4ccccn4)C3)n2-c2ccccc2F)nc1
[1]
  IC50: > 10 µM
RKO
  Activity: Active
[2]
  Papp A→B at 2 h, 10 µM: 39.5 to 40 ×10⁻⁶ cm/s
[3]
  Activity: Non-Toxic
[4]
  Activity: Non-Toxic
[5]
  CL/F: 34.8 mL/min/kg

## O=C(N[C@H]1C[C@H](c2nnc(-c3ccncn3)n2-c2ccccc2Cl)C1)c1ccnc2cccnc12
[2]
  Papp A→B at 2 h, 10 µM: 3.1 ×10⁻⁶ cm/s

## CS(=O)(=O)c1ccc(-c2nnc([C@H]3C[C@H](NC(=O)c4cccc5cccnc45)C3)n2-c2ccccc2F)nc1
[5]
  CL/F: 28.2 mL/min/kg

## N#Cc1ccc2c(c1)[nH]c(=O)n2[C@H]1C[C@H](c2nnc(-c3ccncn3)n2-c2ccccc2Cl)C1
[6]
  IC50: > 10 µM
[1]
  IC50: > 10 µM
[7]
  IC50: > 10 µM
[8]
  IC50: > 10 µM

## O=C(N[C@H]1C[C@H](c2nnc(-c3ccccn3)n2-c2ccccc2F)C1)c1ccnc2cc(F)cnc12
[5]
  CL/F: 16.5 mL/min/kg
